Here are results for three compounds from ChEMBL document CHEMBL1135010, “Synthetic studies of cis-4-Amino-L-proline derivatives as novel lipid lowering agents” (2002).

Assay [1] is described as follows: Screening was performed to determine its plasma triglyceride lowering activity on administration of 10 mg/kg/day dose for 6 days on inbreed colony of Swiss Albino Mice. The format is functional, Mus musculus.
Assay [2] in a line: Screening was performed to determine its plasma triglyceride lowering activity on administration of 30 mg/kg/day dose for 6 days on inbreed colony of Swiss Albino Mice. The format is functional, Mus musculus.
The next assay deals with Mus musculus. The experiment in a line: Screening was performed to determine its plasma triglyceride lowering activity on administration of 10 mg/kg/day on inbreed colony of Swiss Albino Mice; No significant reduction. The format is functional, organism-based.

Active and inactive are the calls of the source. The rule behind the calls is not given here.

On to `CCc1nc2ccccc2c(=O)n1CC(=O)N[C@H]1C[C@@H](C(=O)O)N(C(=O)OC(C)(C)C)C1`, for which, in assay [1], the Lowering activity was determined as 30%. Compound `CC(C)OC(=O)C(C)(C)Oc1ccc(C(=O)c2ccc(Cl)cc2)cc1` [FENOFIBRATE] came in with a Lowering activity in assay [2] of 36%. In addition, the Lowering activity result in the assay with Mus musculus is “inactive”. Take `CCCc1nn(C)c2c(=O)n(CC(=O)N[C@H]3C[C@@H](C(=O)OCC)N(C(=O)OC(C)(C)C)C3)c(CC)nc12`: the Lowering activity in assay [1] is 40%.
